Measurements from US11246934B2, “Nanoparticles and methods for preparation thereof” (B.G. Negev Technologies & Applications Ltd. at Ben-Gurion …, priority 2015, dated 2022).
Counter-ions that a name gives are not always drawn.

How the values were obtained:
[1] = test system: MCF-7 cells (cell line of breast cancer); experiment: MTT cytotoxicity assay in MCF-7 cell line; format: cell-based; settings: MCF-7, at 1 mg/ml
Method: The direct effect of curcumin and doxorubicin on the viability of cultured cells was assessed in vitro using the MCF-7 cells (cell line of breast cancer). […] Fresh cell medium was then prepared with test compounds in appropriate dilutions (equivalent to their concentrations as determined by HPLC). Cell growth after 48 h was assayed by MTT assay [3-(4,5-Dimethylthiazol-2-yl)-2,5-diphenyltetrazolium bromide, Sigma-Aldrich] and was evaluated by measuring the absorbance at 540 nm after 3 h of incubation in a medium containing 0.5 mg/ml MTT (Sunrise™ absorbance plate reader, TECAN). […] FIG. 13C presents dose response behavior of DOX-loaded and unloaded NPs vs. solutions at various concentrations after 24-h and 48-h incubation.

[2] = test system: melanoma B16F0 cells; experiment: B16F0 melanoma tumor model in mice; settings: day 18 of treatment, 0.5 mg/kg s.c. twice a week
Method: Female C57BL/6 mice (5-6 weeks old, 14-18 g) were obtained from Harlan Laboratories Ltd (Jerusalem, Israel). Mice were housed under humidity- and temperature-controlled conditions, and the light/dark cycle was set at 12-h intervals.
B16F0 melanoma cells were maintained in RPMI 1640 medium supplemented with 10% bovine serum and 200 μM L-glutamine, 10 units/mL penicillin, and 10 μg/mL streptomycin (Biological Industries, Beth Ha'Emek, Israel). The cells were kept at 37° C. in a 5% CO2 humidified atmosphere.
The mice were inoculated with melanoma B16F0 cells (1×10^6) subcutaneously in the right flank of the mice. After tumors had been visualized a week later, the mice were weighed and measured for tumor size (244±213 mm^3), and were randomly sorted into three groups. […] Tumor volumes and mouse body weights were measured routinely before each treatment. Measurement of tumor size was performed with a caliper in two dimensions, and individual tumor volumes (V) were calculated by the formula: V=[length×(width)^2]×π/6.
The statistical differences between the therapeutic effects of different treatments on tumor growth were determined by two-tailed Student's test. […]

[3] = topically applied, eye drops; cited from earlier work
[4] = Dynamic dialysis of chloramphenicol, apparent dialysis bag permeability constant; format: physicochemical; settings: dialysis bag 10K MWCO, NaCl 0.9% w/v
Method: The amount of drug released from the NPs was determined by a dynamic dialysis technique monitoring the drug concentration in the receiver solution (i.e., outer solution surrounding a dialysis bag). The method is based on the assumption that drug is first released from the NPs into the donor solution (i.e., the dissolution medium inside the dialysis bag). Subsequently, the drug can diffuse through the dialysis bag from the donor to the receiver.
A sample of 3 ml of the NP dispersion (1:1 diluted with saline) was introduced into a dialysis bag (SnakeSkin Dialysis Tubing, 10K MWCO, 22 mm, Thermo Fisher Scientific, Rockford, USA). The sample was dialyzed against 60 ml of saline solution (NaCl solution, 0.9%, w/v) for 7 hours. The receiver solution was agitated by magnetic stirring throughout the experimental procedure. Samples of 200 μl were withdrawn from the receiver solution at predetermined time intervals and their drug concentrations were measured by HPLC.
The apparent dialysis bag permeability constant (k′) was calculated according to the method described in ‘Materials and Methods’ section 2.6. […]

SMILES	cytotoxicity [1]	survival [2] [%]	bioavailability [3]	half-life [3] [h]	apparent permeability constant (k′) [4] [h⁻¹]
COc1cccc2c1C(=O)c1c(O)c3c(c(O)c1C2=O)C[C@@](O)(C(=O)CO)C[C@@H]3O[C@H]1C[C@H](N)[C@H](O)[C@H](C)O1 [DOX-HCl solution, doxorubicin]	highly cytotoxic	58			
O=C(N[C@H](CO)[C@H](O)c1ccc([N+](=O)[O-])cc1)C(Cl)Cl [chloramphenicol]			1-10%	1.5 to 5	1.207 ± 0.018
